Paper PMC12080252, “Daphnia magna as an Alternative Model for (Simultaneous) Bioaccumulation and Chronic Toxicity Assessment—Controlled Exposure Study Indicates High Hazard of Heterocyclic PAHs” (Environmental Science & Technology, 2025)
Where “and” joins values, the source holds several entries; their conditions need not be identical. Identical values can stand only once.

Assays:
Daphnia magna = assay: Chronic reproduction toxicity test (OECD 211) with passive dosing; type: in vivo; settings: for EC10: 21-day reproduction inhibition; for % inhibition, avr.: average of vessels; for % inhibition (of reproduction, per vessel): relative to controls; for wet weight of parent daphnids, change relative to control: end of 21-d exposure
Description: (§1) Chronic toxicity tests with D. magna were performed according to the OECD guideline 211^2 using the passive dosing method. Two days before the tests, the exposure solution was predosed by shaking 10 PDMS disks loaded with the test substance in 1 L of medium for 48 h. Each test vessel (250 mL) was first flushed with the dosed solution to equilibrate the vessel walls, then filled with 100 mL of test solution, one PDMS disk, and one juvenile D. magna (<24 h old). The tests were conducted in loosely closed bottles to allow for adequate gas exchange and limit evaporation. The exposure medium was changed three times per week, and the animals were fed D. subspicatus daily (0.2 mg C/Daphnia/day). The number of offspring per adult and behavioral or physiological effects (e.g., size, movement, unhatched eggs) were recorded daily (except weekends). Dissolved oxygen, pH and temperature were also measured each week.
(§2) Tests were performed under static conditions (20 °C, 16:8 h light/dark cycle, 1 klux). Each compound was tested in 10 replicates for controls and limit tests (a single high concentration exposure to screen for significant toxic effects) and with 6 or 10 replicates for concentration–response tests. Reuse of silicone disks was included in some experiments (Table S3). Reproductive inhibition was assessed by counting offspring over 21 days. The number of offspring per mother in treatment groups was compared to controls, and the percent inhibition per replicate was used to generate concentration–response curves. A minimum of five concentrations per compound were tested to determine EC10, EC20, and EC50 values. For each test, three sets of polymers were rotated between loading, dosing, and exposure stages (Figure S2). Initial (before animal and food addition) and final (after 2–3 days of exposure, just before the medium change) water concentrations (CW) were monitored, with the latter collected after centrifugation to remove biomass (e.g., algae, carapaces, or feces).
(§3) All data are presented as average ± standard deviation. Student’s t test was used to analyze significance (p-value >0.05 considered insignificant). Concentration–response curve parameters (effective concentrations and confidence limits) and plots were generated using GraphPad Prism software (V6.01, GraphPad Software, La Jolla, CA, USA). The exposure concentrations were log10 transformed before fitting. Then a four parameters logistic model with variable slope was used to obtain EC10, EC20 and EC50 (see section S5 in SI file for details). Effective chemical activities (EA50) for chronic toxicity were calculated as follows: [drawing 1] 1 […]
(§4) S5. Concentration-response curve (CRC) fitting procedure
(§5) GraphPad Prism version 9.5.1 was used to fit CRC and obtain EC10, EC20, EC50 values and their confidence intervals. The exposure concentrations were log10 transformed before fitting. Then a four parameters logistic model with variable slope was used that describes the response as a function of following four parameters: minimum response (the Bottom), maximum response (the Top), the concentration required to cause a response half-way between the minimum and maximum (the EC50) and the slope of the curve […]
(§6) concentration. The Top was constrained to 100, the Bottom was constrained to 0, the HillSlope was not […]
(§7) !"# %& = !"# %&* − , × !"# 3 * 4
(§8) (, + ,((!"# %&'(<=)×-.!!/!"01)
(§9) Figure S7 Concentration-response curves of four NSO-PAHs based on reproductive inhibition during 21-day chronic toxicity tests with D. magna.
(§10) (1 picture or pasted object on this page, not shown here)

[1] = as above; type: in vivo, Daphnia magna; settings: Daphnia magna, in vivo, other: waterborne exposure by passive dosing from PDMS disks, 21-day test, read-out: % offspring mortality of total offspring
Description: as §1, §2, §3, §4, §5, §6, §7, §8, §9, §10

[2] = Test 5-BCRB, avr. medium concentration 68.16 µg/L, 21 days
[3] = Test 5-BCRB, avr. medium concentration 68.16 µg/L, 21 days, one value per vessel

In the case of `c1ccc2c(c1)ccc1[nH]c3ccccc3c12` [BCRB, 7H-benzo[c]carbazole], the EC10 (Daphnia magna; 97.5-2.5% confidence interval in brackets) is reported as 15.0 (8.6-24.3) μg L^-1, the EC10 (Daphnia magna; confidence interval in brackets) is reported as 69.2 (39.7-111.8) nmol L^-1 and the “growth of parent D. magna (wet weight)” value (Daphnia magna; 21-day test, p-value <0.05) is reported as “significantly inhibited D. magna growth”. For the same molecule, the “LOEC (lowest observed effect concentration, reproduction inhibition)” value (Daphnia magna; 21 days, p-value <0.05 vs controls) was 9.8 μg L^–1, the “%offspring mortality” value (Daphnia magna; BCRB 3.99 µg/L, 21 days) was 3.29% and the “% inhibition, avr.” value (Daphnia magna; BCRB 3.99 µg/L, 21 days) was 0.7%. For the same molecule, the “#average live offspring” value (Daphnia magna; BCRB 3.99 µg/L, 21 days, per mother) was 83, the “#total live offspring” value (Daphnia magna; BCRB 3.99 µg/L, 21 days, sum of all vessels) was 499 and the “%offspring mortality” value (Daphnia magna; BCRB 9.55 µg/L, 21 days) was 4.04%. For the same molecule, the “% inhibition, avr.” value (Daphnia magna; BCRB 9.55 µg/L, 21 days) was 15.0%, the “#average live offspring” value (Daphnia magna; BCRB 9.55 µg/L, 21 days, per mother) was 71 and the “% inhibition (of reproduction, per vessel)” value (Daphnia magna; BCRB 9.55 µg/L, 21 days, single vessels 1-6) was 6.9%. The “#total live offspring” value (Daphnia magna; BCRB 9.55 µg/L, 21 days, sum of all vessels) was 427, the “%offspring mortality” value (Daphnia magna; BCRB 21.94 µg/L, 21 days) was 2.91% and the “% inhibition, avr.” value (Daphnia magna; BCRB 21.94 µg/L, 21 days) was 20.4%. For the same molecule, the “#average live offspring” value (Daphnia magna; BCRB 21.94 µg/L, 21 days, per mother) was 67, the “#total live offspring” value (Daphnia magna; BCRB 21.94 µg/L, 21 days, sum of all vessels) was 400 and the “%offspring mortality” value (Daphnia magna; BCRB 43.46 µg/L, 21 days) was 5.62%. The “% inhibition, avr.” value (Daphnia magna; BCRB 43.46 µg/L, 21 days) was 39.8%, the “#average live offspring” value (Daphnia magna; BCRB 43.46 µg/L, 21 days, per mother) was 50 and the “% inhibition (of reproduction, per vessel)” value (Daphnia magna; BCRB 43.46 µg/L, 21 days, single vessels 2-6) was 39.1% and 54.6% and 28.4% and 37.9%. For the same molecule, the “#total live offspring” value (Daphnia magna; BCRB 43.46 µg/L, 21 days, sum of all vessels) was 252, the “Survival of the mother animal” value (Daphnia magna; BCRB 43.46 µg/L, vessel 1, day 5) was “dead” and the “Total #offspring per mother (live, per vessel)” value (Daphnia magna; BCRB avr. medium concentration 3.99 µg/L (methanol for dosing 0.063 g/L), 21 days, single vessels 1-6) was 104 and 86 and 87 and 79 and 68 and 75. For the same molecule, the “Total #offspring per mother (live, per vessel)” value (Daphnia magna; BCRB avr. medium concentration 9.55 µg/L (methanol for dosing 0.125 g/L), 21 days, single vessels 1-6) was 68 and 63 and 78 and 79 and 61, the “Total #offspring per mother (live, per vessel)” value (Daphnia magna; BCRB avr. medium concentration 21.94 µg/L (methanol for dosing 0.25 g/L), 21 days, single vessels 1-6) was 67 and 73 and 77 and 64 and 63 and 56 and the “Total #offspring per mother (live, per vessel)” value (Daphnia magna; BCRB avr. medium concentration 43.46 µg/L (methanol for dosing 0.5 g/L), 21 days, single vessels 2-6) was 51 and 38 and 60 and 52. The “EA50 (effective chemical activity)” value (Daphnia magna; EC50/subcooled liquid solubility, eq 1) was 0.004 unitless, the “%offspring mortality” value (Daphnia magna; [2]) was 32.43% and the “#total live offspring” value (Daphnia magna; Test 5-BCRB, avr. medium concentration 68.16 µg/L, 21 days, all vessels) was 75. The “% inhibition, avr.” value (Daphnia magna; [2]) was 82.1%, the “% inhibition (of reproduction, per replicate vessel)” value (Daphnia magna; [3]) was 82.1% and 86.9% and 83.3% and 74.9% and the “Total #dead offspring per mother (per replicate vessel)” value (Daphnia magna; [3]) was 9 and 2 and 8. For the same molecule, the “#average live offspring” value (Daphnia magna; Test 5-BCRB, avr. medium concentration 68.16 µg/L, 21 days, per surviving mother) was 15, the “Total #offspring per mother (per replicate vessel)” value (Daphnia magna; Test 5-BCRB, avr. medium concentration 68.16 µg/L, methanol dosing conc. 1 g/L, 21 days, one value per vessel) was 15 and 11 and 14 and 21 and the “Mother survival (parent mortality)” value (Daphnia magna; Test 5-BCRB, avr. medium concentration 68.16 µg/L, vessel 3, day 5) was “dead”. For the same molecule, the “CTLBB (critical target lipid body burden)” value (Daphnia magna; derived from chronic EC10 using eq 3) was 12.6 μmol g^-1 octanol, the “wet weight of parent daphnids, change relative to control” value (“wet weight … change relative to control” for short) (Daphnia magna; 4.1 µg/L (Fig. S9)) was “+17%” and the “wet weight … change relative to control” value (Daphnia magna; 9.8 µg/L (Fig. S9)) was -14%. For the same molecule, the “wet weight … change relative to control” value (Daphnia magna; 21.8 µg/L (Fig. S9)) was -15%, the “wet weight … change relative to control” value (Daphnia magna; 44.6 µg/L (Fig. S9)) was -34% and the “wet weight … change relative to control” value (Daphnia magna; 68.2 µg/L (Fig. S9)) was -77%. The swimming behavior (Daphnia magna; two highest exposure concentrations, 22 and 68 μg L^–1) was “induced locomotor changes”, the mortality at 21 days, 4.1 µg/L ([1]; 4.1 µg/L (Fig. S8)) was 3.3% and the mortality at 21 days, 9.8 µg/L ([1]; 9.8 µg/L (Fig. S8)) was 4%. The mortality at 21 days, 21.8 µg/L ([1]; 21.8 µg/L (Fig. S8)) was 2.9%, the mortality at 21 days, 44.6 µg/L ([1]; 44.6 µg/L (Fig. S8)) was 5.6% and the mortality at 21 days, 68.2 µg/L ([1]; 68.2 µg/L (Fig. S8)) was 32.4%.
